Results reported in patent US20260256827A1, “Methods for treating lower back pain with hyaluronic acid” (priority 2023, published 2026).

What was measured:
Format in all cases: in vivo, human
[1] = system: peripheral neuropathy foot pain; test: Example 2 patient: treatment of peripheral neuropathy / foot pain; settings: 75 mg bid from Nov. 9, 2023
Procedure: Beginning on Oct. 2, 2023, the patient was treated for peripheral neuropathy lidocaine/prilocaine 2.5% cream applied to their feet bilaterally. […] 8, 2024.

[2] = system: chronic, bilateral lower back pain; test: Example 2: HA injections, patient, pain severity on visual analog numerical rating scale; settings: 75 mg bid from Nov. 9, 2023; recurrence reported Jan. 8, 2024
Procedure: (§1) In the Examples, unless otherwise specified, pain severity was assessed using a visual analog numerical rating scale ranging from 0 (no pain) to 10 (worst pain possible), and hyaluronic acid (HA) injections (Hyalgan™, 10 mg/mL, MW: 500,000 to 730,000 Daltons in 2 mL pre-filled syringes) were administered using a 30 gauge, ½″ needle.
On Oct. 5, 2023, a patient reported chronic, bilateral lower back pain, and more recent onset of pain in their feet that slowly spread to their lower leg, but mostly resides on the plantar surface of their feet. The lower back pain severity was 7/10 (between severe and very severe) at rest, and up to 9/10 (between very severe and worse pain possible) after standing all day.
On Oct. […] The injection locations were determined by findings of focal tenderness of the palpated sites illustrated in FIG. 1.
On Oct. 12, 2023, patient reported maximum lower back pain severity of 5-6/10 (severe). […] These injection locations were again determined by findings of focal tenderness of palpated sites illustrated in FIG. 1.
On Jan. […] These injection locations were again determined by findings of focal tenderness of palpated sites illustrated in FIG. 1.
On Mar. […] These injection locations were again determined by findings of focal tenderness of palpated sites illustrated in FIG. 1.

[3] = system: chronic lower back pain with enthesopathy; test: Example 3: HA injections, patient, pain severity on visual analog numerical rating scale; settings: tramadol and cyclobenzaprine together, before HA
Procedure: as §1

chronic low back pain = test: Example 4: Hyalgan injections, person, pain severity; settings: before Hyalgan
Procedure: as §1
Hyaluronic acid injections were administered in the form of Hyalgan ([…]) along the lateral margin of the left PSIS (two injections; 1 mL each). […] […] received subsequent injections on this visit: again two injections of 1 mL each along the lateral margins of […] left PSIS.

| Compound | effect on foot pain [1] | effect on recurrence of lower back pain [2] | benefit of ongoing treatment for lower back pain [3] | benefit of prior treatment for low back pain (chronic low back pain) |
| --- | --- | --- | --- | --- |
| CC(C)C[C@H](CN)CC(=O)O [pregabalin] | helpful | did not prevent the recurrence | – | – |
| COc1cccc(C2(O)CCCCC2CN(C)C)c1 (stereo not drawn) [tramadol] | – | – | helped only marginally | – |
| CC(C)Cc1ccc(C(C)C(=O)O)cc1 (stereo not drawn) [ibuprofen] | – | – | – | without benefit |
| CN(C)CCC=C1c2ccccc2C=Cc2ccccc21 [cyclobenzaprine] | – | – | helped only marginally | without benefit |
